Species on record: Rattus norvegicus
Test: Open TG-GATES - Regimen: Daily Repeat
Format: toxicity, organism-based, Sprague-Dawley
Design: regimen Daily Repeat, gender Male, age 6 weeks
Conditions: in vivo, iv, route intravenous injection; for Bas / Eos / Fbg / Ht / Lym / MCH / MCHC / MCV / Mono / PT / RBC / Ret / WBC: tissue Blood; for KIDNEY_L / KIDNEY_R / KIDNEY_TOTAL: tissue Kidney; for ALP / AST / CRE / DBIL / GLC / IP / K / Na / PL / RALB / TBIL / TG / TP / gamma-GTP / TC: tissue Plasma
[1] = 0 mg/kg, 72 h, dose level Control, time 3 day
[2] = 0 mg/kg, […], dose level Control, time 7 day
[3] = 0 mg/kg, […], dose level Control, time 14 day
[4] = 0 mg/kg, […], dose level Control, time 28 day
[5] = 1 mg/kg, 72 h, dose level High, time 3 day
[6] = 1 mg/kg, […], dose level High, time 7 day
[7] = 1 mg/kg, […], dose level High, time 14 day
[8] = 1 mg/kg, […], dose level High, time 28 day

COc1cccc2c1C(=O)c1c(O)c3c(c(O)c1C2=O)C[C@@](O)(C(=O)CO)C[C@@H]3O[C@H]1C[C@H](N)[C@H](O)[C@H](C)O1 [DOXORUBICIN]
TERMINAL_BW [1]: 230.2 g | Bas [1]: 0% | Eos [1]: 0.8% | Fbg [1]: 276.4 mg/dL | Ht [1]: 37.6% | Lym [1]: 80% | MCH [1]: 21.3 pg | MCHC [1]: 34.2% | MCV [1]: 62.3 fL | Mono [1]: 2.8% | PT [1]: 16.3 s | RBC [1]: 603.8 x10_4/ul | Ret [1]: 5.8% | WBC [1]: 107.3 x10_2/uL | KIDNEY_L [1]: 1 g | KIDNEY_R [1]: 1 g | KIDNEY_TOTAL [1]: 2 g | ALP [1]: 1504.4 IU/L | AST [1]: 70.6 IU/L | CRE [1]: 0.2 mg/dL | DBIL [1]: 0.002 mg/dL | GLC [1]: 193.8 mg/dL | IP [1]: 6.9 mg/dL | K [1]: 4.8 meq/L | Na [1]: 141 meq/L | PL [1]: 141 mg/dL | RALB [1]: 3 g/dL | TBIL [1]: 0.006 mg/dL | TG [1]: 86.6 mg/dL | TP [1]: 5.4 g/dL | gamma-GTP [1]: 1.4 IU/L | TERMINAL_BW [2]: 251.1 g | TERMINAL_BW [3]: 307.3 g | TERMINAL_BW [4]: 382.5 g | Bas [2]: 0% | Eos [2]: 0.6% | Fbg [2]: 285.8 mg/dL | Ht [2]: 38.4% | Lym [2]: 77.4% | MCH [2]: 20.8 pg | MCHC [2]: 35.3% | MCV [2]: 58.9 fL | Mono [2]: 2.8% | PT [2]: 16.5 s | RBC [2]: 652.8 x10_4/ul | Ret [2]: 5.5% | WBC [2]: 121 x10_2/uL | Bas [3]: 0% | Eos [3]: 0.8% | Fbg [3]: 305.6 mg/dL | Ht [3]: 39.4% | Lym [3]: 82.2% | MCH [3]: 20.5 pg | MCHC [3]: 35.8% | MCV [3]: 57 fL | Mono [3]: 2.2% | PT [3]: 16.1 s | RBC [3]: 691.8 x10_4/ul | Ret [3]: 4.8% | WBC [3]: 124.7 x10_2/uL | Bas [4]: 0% | Eos [4]: 1.4% | Fbg [4]: 305.6 mg/dL | Ht [4]: 42.7% | Lym [4]: 85.6% | MCH [4]: 19.6 pg | MCHC [4]: 36.3% | MCV [4]: 54 fL | Mono [4]: 2% | PT [4]: 16.4 s | RBC [4]: 792.2 x10_4/ul | Ret [4]: 2.9% | WBC [4]: 144.2 x10_2/uL | KIDNEY_L [2]: 1.1 g | KIDNEY_R [2]: 1.1 g | KIDNEY_TOTAL [2]: 2.2 g | KIDNEY_L [3]: 1.2 g | KIDNEY_R [3]: 1.2 g | KIDNEY_TOTAL [3]: 2.3 g | KIDNEY_L [4]: 1.4 g | KIDNEY_R [4]: 1.4 g | KIDNEY_TOTAL [4]: 2.7 g | ALP [2]: 1305.8 IU/L | AST [2]: 67 IU/L | CRE [2]: 0.2 mg/dL | DBIL [2]: 0 mg/dL | GLC [2]: 188.2 mg/dL | IP [2]: 7.2 mg/dL | K [2]: 4.5 meq/L | Na [2]: 142.2 meq/L | RALB [2]: 2.9 g/dL | TBIL [2]: 0.014 mg/dL | TC [2]: 74.4 mg/dL | TG [2]: 100.2 mg/dL | TP [2]: 5.3 g/dL | gamma-GTP [2]: 1.2 IU/L | ALP [3]: 1239.2 IU/L | AST [3]: 59.2 IU/L | CRE [3]: 0.2 mg/dL | DBIL [3]: 0 mg/dL | GLC [3]: 203 mg/dL | IP [3]: 6.9 mg/dL | K [3]: 4.4 meq/L | Na [3]: 140.8 meq/L | RALB [3]: 3.1 g/dL | TBIL [3]: 0.018 mg/dL | TC [3]: 69 mg/dL | TG [3]: 129.2 mg/dL | TP [3]: 5.7 g/dL | gamma-GTP [3]: 2.6 IU/L | ALP [4]: 795.8 IU/L | AST [4]: 64.8 IU/L | CRE [4]: 0.3 mg/dL | DBIL [4]: 0 mg/dL | GLC [4]: 186.6 mg/dL | IP [4]: 6.7 mg/dL | K [4]: 4.1 meq/L | Na [4]: 140.6 meq/L | PL [4]: 130.8 mg/dL | RALB [4]: 3.1 g/dL | TBIL [4]: 0.006 mg/dL | TC [4]: 65 mg/dL | TG [4]: 96.2 mg/dL | TP [4]: 6.1 g/dL | gamma-GTP [4]: 1 IU/L | TERMINAL_BW [5]: 213.7 g | Bas [5]: 0% | Eos [5]: 1% | Fbg [5]: 293 mg/dL | Ht [5]: 37.6% | Lym [5]: 83.6% | MCH [5]: 21.4 pg | MCHC [5]: 35% | MCV [5]: 61.1 fL | Mono [5]: 2.4% | PT [5]: 16.3 s | RBC [5]: 616 x10_4/ul | Ret [5]: 1% | WBC [5]: 40.5 x10_2/uL | KIDNEY_L [5]: 0.9 g | KIDNEY_R [5]: 0.9 g | KIDNEY_TOTAL [5]: 1.8 g | ALP [5]: 1562.4 IU/L | AST [5]: 64.4 IU/L | CRE [5]: 0.2 mg/dL | DBIL [5]: 0 mg/dL | GLC [5]: 194.4 mg/dL | IP [5]: 7 mg/dL | K [5]: 4.3 meq/L | Na [5]: 141.4 meq/L | RALB [5]: 3.1 g/dL | TBIL [5]: 0.014 mg/dL | TC [5]: 79 mg/dL | TG [5]: 78.2 mg/dL | TP [5]: 5.6 g/dL | gamma-GTP [5]: 1.4 IU/L | TERMINAL_BW [6]: 236 g | TERMINAL_BW [7]: 244.4 g | TERMINAL_BW [8]: 221.9 g | Bas [6]: 0% | Eos [6]: 1.4% | Fbg [6]: 307.2 mg/dL | Ht [6]: 34.1% | Lym [6]: 84.2% | MCH [6]: 20.5 pg | MCHC [6]: 36.1% | MCV [6]: 56.8 fL | Mono [6]: 2.4% | PT [6]: 16.1 s | RBC [6]: 600.6 x10_4/ul | Ret [6]: 0.06% | WBC [6]: 32.9 x10_2/uL | Bas [7]: 0% | Eos [7]: 0.4% | Fbg [7]: 315.6 mg/dL | Ht [7]: 31.5% | Lym [7]: 76.8% | MCH [7]: 20.6 pg | MCHC [7]: 37.1% | MCV [7]: 55.7 fL | Mono [7]: 1% | RBC [7]: 566.8 x10_4/ul | Ret [7]: 0.04% | WBC [7]: 14.2 x10_2/uL | Bas [8]: 0% | Eos [8]: 0.5% | Fbg [8]: 669 mg/dL | Lym [8]: 31.5% | MCH [8]: 18.1 pg | MCHC [8]: 38% | MCV [8]: 47.6 fL | Mono [8]: 8% | PT [8]: 15.1 s | RBC [8]: 301.5 x10_4/ul | Ret [8]: 0.2% | WBC [8]: 44.9 x10_2/uL | KIDNEY_L [6]: 1 g | KIDNEY_R [6]: 1 g | KIDNEY_TOTAL [6]: 2 g | KIDNEY_L [7]: 1 g | KIDNEY_R [7]: 1 g | KIDNEY_TOTAL [7]: 2 g | KIDNEY_L [8]: 1.4 g | KIDNEY_R [8]: 1.4 g | KIDNEY_TOTAL [8]: 2.8 g | ALP [6]: 963 IU/L | AST [6]: 66.6 IU/L | CRE [6]: 0.2 mg/dL | DBIL [6]: 0 mg/dL | GLC [6]: 199.6 mg/dL | IP [6]: 7.3 mg/dL | K [6]: 4.5 meq/L | Na [6]: 142.8 meq/L | PL [6]: 170.4 mg/dL | RALB [6]: 3 g/dL | TBIL [6]: 0.018 mg/dL | TC [6]: 88.8 mg/dL | TG [6]: 110.2 mg/dL | TP [6]: 5.6 g/dL | gamma-GTP [6]: 1.6 IU/L | ALP [7]: 635.6 IU/L | AST [7]: 56.4 IU/L | CRE [7]: 0.2 mg/dL | DBIL [7]: 0.002 mg/dL | GLC [7]: 200.8 mg/dL | K [7]: 4.1 meq/L | Na [7]: 142 meq/L | RALB [7]: 2.9 g/dL | TBIL [7]: 0.032 mg/dL | TC [7]: 90.8 mg/dL | TG [7]: 110.4 mg/dL | TP [7]: 5.4 g/dL | gamma-GTP [7]: 1.4 IU/L | ALP [8]: 339 IU/L | AST [8]: 39.5 IU/L | CRE [8]: 0.2 mg/dL | DBIL [8]: 0 mg/dL | GLC [8]: 197 mg/dL | IP [8]: 5.6 mg/dL | K [8]: 3.9 meq/L | Na [8]: 141.5 meq/L | PL [8]: 357.5 mg/dL | RALB [8]: 1.6 g/dL | TBIL [8]: 0 mg/dL | TC [8]: 233 mg/dL | TG [8]: 309 mg/dL | TP [8]: 4.5 g/dL | gamma-GTP [8]: 14.5 IU/L

From ChEMBL document CHEMBL3885861, “Open TG-GATES”
